Experimental findings from patent US9260425B2 (Genetech, Inc., priority 2011, dated 2016) are described below.

This assay concerns the target Pim-1 (Homo sapiens (Human), UniProt P11309). Put plainly: Pim kinase binding activity assay (Example 901), PIM-1 enzyme, Caliper microfluidic peptide phosphorylation. Format: biochemical. The conditions noted are these: 20 pM PIM-1, 10 μM ATP, 1 μM FAM-peptide, 90 minutes at room temperature. The method, boiled down: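 PIM-1 at 20 pM phosphorylated 1 μM FAM-labelled Pim peptide with 10 μM ATP in HEPES pH 7.2, MgCl2, Tween 20 and DTT for 90 min at room temperature. EDTA stopped the reaction, and product and substrate were resolved by microfluidic electrophoresis (ex 488/em 530 nm). Ki was derived from substrate conversion.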

Pim-1, sequence (P11309 whole entry): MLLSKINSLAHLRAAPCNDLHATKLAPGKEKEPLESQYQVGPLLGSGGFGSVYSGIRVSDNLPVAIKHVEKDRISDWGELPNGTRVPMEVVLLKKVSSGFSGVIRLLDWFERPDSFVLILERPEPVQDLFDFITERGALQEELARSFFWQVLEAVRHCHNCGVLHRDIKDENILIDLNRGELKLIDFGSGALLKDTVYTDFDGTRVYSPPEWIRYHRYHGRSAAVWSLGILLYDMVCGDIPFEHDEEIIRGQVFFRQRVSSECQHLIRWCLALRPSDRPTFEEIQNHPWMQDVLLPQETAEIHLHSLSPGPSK

Take `N[C@H]1CCC[C@@H](Nc2cccc(-c3n[nH]c4cnc(-c5cccnc5)cc34)n2)C1` [Example 340, (1R,3S)-N1-(6-(5-(pyridin-3-yl)-1H-pyrazolo[3,4-c]pyridin-3-yl)pyridin-2-yl)cyclohexane-1,3-diamine]: the Ki was determined as 0.044 nM.
`N[C@@H]1CCC[C@H](Nc2cccc(-c3n[nH]c4cnc(-c5cccnc5)cc34)n2)C1` [Example 341, (1S,3R)-N1-(6-(5-(pyridin-3-yl)-1H-pyrazolo[3,4-c]pyridin-3-yl)pyridin-2-yl)cyclohexane-1,3-diamine] showed a Ki of 0.077 nM.
Under `C#Cc1ccc(-c2n[nH]c3cnc(-c4cccnc4)cc23)nc1N1CCC[C@H](N)C1` [Example 342, (S)-1-(3-ethynyl-6-(5-(pyridin-3-yl)-1H-pyrazolo[3,4-c]pyridin-3-yl)pyridin-2-yl)piperidin-3-amine] stands 0.01 nM; under `C[C@]1(N)CCCN(c2cccc(-c3n[nH]c4cnc(-c5cccnc5)cc34)n2)C1` [Example 343, (S)-3-methyl-1-(6-(5-(pyridin-3-yl)-1H-pyrazolo[3,4-c]pyridin-3-yl)pyridin-2-yl)piperidin-3-amine], 0.045 nM; under `NC(=O)[C@@H]1CCCN1c1ccc(-c2n[nH]c3cnc(-c4cccnc4)cc23)nc1` [Example 344, (S)-1-(6-(5-(pyridin-3-yl)-1H-pyrazolo[3,4-c]pyridin-3-yl)pyridin-3-yl)pyrrolidine-2-carboxamide], 3.9 nM.
Under `N[C@H]1CCCN(c2cccc(-c3n[nH]c4cnc(N5CCNC(=O)C5)cc34)n2)C1` [Example 345, (S)-4-(3-(6-(3-aminopiperidin-1-yl)pyridin-2-yl)-1H-pyrazolo[3,4-c]pyridin-5-yl)piperazin-2-one] stands 13.7 nM; under `O=C1CNCCN1c1cc2c(-c3cccc(N4CCNCC4)n3)n[nH]c2cn1` [Example 346, 1-(3-(6-(piperazin-1-yl)pyridin-2-yl)-1H-pyrazolo[3,4-c]pyridin-5-yl)piperazin-2-one], 219 nM; under `C[C@@]1(N)CCCN(c2cccc(-c3n[nH]c4cnc(-c5cccnc5)cc34)n2)C1` [Example 347, (R)-3-methyl-1-(6-(5-(pyridin-3-yl)-1H-pyrazolo[3,4-c]pyridin-3-yl)pyridin-2-yl)piperidin-3-amine], 0.11 nM.
The compound `Fc1ccccc1-c1n[nH]c2cnc(-c3cncs3)cc12` [Example 348, 5-(3-(2-fluorophenyl)-1H-pyrazolo[3,4-c]pyridin-5-yl)thiazole] gave a Ki of 26.8 nM.
Under `CN1CCN(c2cc3c(-c4ccccn4)n[nH]c3cn2)CC1=O` [Example 351, 1-methyl-4-(3-(pyridin-2-yl)-1H-pyrazolo[3,4-c]pyridin-5-yl)piperazin-2-one] stands 4800 nM; under `N[C@@H]1CCC[C@@H](Nc2cccc(-c3n[nH]c4cnc(-c5cccnc5)cc34)n2)C1` [Example 352, (1R,3R)-N1-(6-(5-(pyridin-3-yl)-1H-pyrazolo[3,4-c]pyridin-3-yl)pyridin-2-yl)cyclohexane-1,3-diamine], 0.025 nM.
`N[C@H]1CCC[C@H](Nc2cccc(-c3n[nH]c4cnc(-c5cccnc5)cc34)n2)C1` [Example 353, (1S,3S)-N1-(6-(5-(pyridin-3-yl)-1H-pyrazolo[3,4-c]pyridin-3-yl)pyridin-2-yl)cyclohexane-1,3-diamine] displayed a Ki of 0.397 nM.
Under `[O-][n+]1cc(C(F)(F)F)ccc1-c1n[nH]c2cnc(-c3cccnc3)cc12` [Example 354] stands 97.9 nM.
The compound `CN1C(=O)CN(c2cc3c(-c4ccccc4)n[nH]c3cn2)C1=O` [Example 355, 3-methyl-1-(3-phenyl-1H-pyrazolo[3,4-c]pyridin-5-yl)imidazolidine-2,4-dione] came in with a Ki of 809 nM.
`c1cc(-c2n[nH]c3cnc(-c4cncs4)cc23)nc(N2CCCCC2)c1` [Example 358, 5-(3-(6-(piperidin-1-yl)pyridin-2-yl)-1H-pyrazolo[3,4-c]pyridin-5-yl)thiazole] yielded a Ki of 1.22 nM.
Under `c1cc(-c2n[nH]c3cnc(-c4cncs4)cc23)nc(N2CCNCC2)c1` [Example 359, 5-(3-(6-(piperazin-1-yl)pyridin-2-yl)-1H-pyrazolo[3,4-c]pyridin-5-yl)thiazole] stands 0.074 nM; under `Cn1cc(-c2cc3c(-c4ccnc(N5CCCCC5)n4)n[nH]c3cn2)cn1` [Example 360, 5-(1-methyl-1H-pyrazol-4-yl)-3-(2-(piperidin-1-y1)pyrimidin-4-yl)-1H-pyrazolo[3,4-c]pyridine], 0.366 nM; under `CCCCc1ccc(-c2n[nH]c3cnc(-c4cccnc4)cc23)nc1N1CCC[C@H](N)C1` [Example 362, (S)-1-(3-butyl-6-(5-(pyridin-3-yl)-1H-pyrazolo[3,4-c]pyridin-3-yl)pyridin-2-yl)piperidin-3-amine], 0.079 nM.
In turn, `c1cc(-c2n[nH]c3cnc(-n4ccnc4)cc23)nc(N2CCCCC2)c1` [Example 363, 5-(1H-imidazol-1-yl)-3-(6-(piperidin-1-yl)pyridin-2-yl)-1H-pyrazolo[3,4-c]pyridine] yielded a Ki of 2.41 nM.
Then `Cn1cc(-c2cc3c(-c4ccnc(N5CCC[C@@H](N)C5)n4)n[nH]c3cn2)cn1` [Example 364, (R)-1-(4-(5-(1-methyl-1H-pyrazol-4-yl)-1H-pyrazolo[3,4-c]pyridin-3-yl)pyrimidin-2-yl)piperidin-3-amine], with 0.052 nM; and `Cn1cc(-c2cc3c(-c4ccnc(N5CCC[C@H](N)C5)n4)n[nH]c3cn2)cn1` [Example 365, (S)-1-(4-(5-(1-methyl-1H-pyrazol-4-yl)-1H-pyrazolo[3,4-c]pyridin-3-yl)pyrimidin-2-yl)piperidin-3-amine], with 0.0941 nM; and `Cc1ccc(-c2cc3c(-c4cccc(N5CCNCC5)n4)n[nH]c3cn2)cn1` [Example 367], with 0.217 nM.
Under `c1cc(-c2n[nH]c3cnc(-n4ccnc4)cc23)nc(N2CCNCC2)c1` [Example 368, 5-(1H-imidazol-1-yl)-3-(6-(piperazin-1-yl)pyridin-2-yl)-1H-pyrazolo[3,4-c]pyridine] stands 1.82 nM; under `N[C@@H]1CCCN(c2cccc(-c3n[nH]c4cnc(-n5ccnc5)cc34)n2)C1` [Example 369, (R)-1-(6-(5-(1H-imidazol-1-yl)-1H-pyrazolo[3,4-c]pyridin-3-yl)pyridin-2-yl)piperidin-3-amine], 1.13 nM.
Turning to `N[C@@H]1CCCN(c2cccc(-c3n[nH]c4cnc(N5CCOC5=O)cc34)n2)C1` [Example 370, (R)-3-(3-(6-(3-aminopiperidin-1-yl)pyridin-2-yl)-1H-pyrazolo[3,4-c]pyridin-5-yl)oxazolidin-2-one], the Ki amounted to 180 nM.
Under `CN1C(=O)CN(c2cc3c(-c4cccc(N5CCNCC5)n4)n[nH]c3cn2)C1=O` [Example 371, 3-methyl-1-(3-(6-(piperazin-1-yl)pyridin-2-yl)-1H-pyrazolo[3,4-c]pyridin-5-yl)imidazolidine-2,4-dione] stands 31.1 nM; under `CCn1cc(-c2cc3c(-c4cccc(N5CCN(C)CC5)n4)n[nH]c3cn2)cn1` [Example 372, 5-(1-ethyl-1H-pyrazol-4-yl)-3-(6-(4-methylpiperazin-1-yl)pyridin-2-yl)-1H-pyrazolo[3,4-c]pyridine], 0.268 nM; under `O=C1OCCN1c1cc2c(-c3cccc(N4CCCCC4)n3)n[nH]c2cn1` [Example 373, 3-(3-(6-(piperidin-1-yl)pyridin-2-yl)-1H-pyrazolo[3,4-c]pyridin-5-yl)oxazolidin-2-one], 483 nM.
Under `N[C@H]1CCCN(c2cccc(-c3n[nH]c4cnc(N5CCOC5=O)cc34)n2)C1` [Example 374, (S)-3-(3-(6-(3-aminopiperidin-1-yl)pyridin-2-yl)-1H-pyrazolo[3,4-c]pyridin-5-yl)oxazolidin-2-one] stands 85 nM; under `CCCn1cc(-c2cc3c(-c4cccc(N5CCNCC5)n4)n[nH]c3cn2)cn1` [Example 375, 3-(6-(piperazin-1-yl)pyridin-2-yl)-5-(1-propyl-1H-pyrazol-4-yl)-1H-pyrazolo[3,4-c]pyridine], 0.039 nM; under `Fc1ccc(-c2cc3c(-c4cccc(N5CCNCC5)n4)n[nH]c3cn2)cn1` [Example 378, 5-(6-fluoropyridin-3-yl)-3-(6-(piperazin-1-yl)pyridin-2-yl)-1H-pyrazolo[3,4-c]pyridine], 0.796 nM.
`CC(C)(CN)Cn1cc(-c2n[nH]c3cnc(-c4cccnc4)cc23)ccc1=O` [Example 379, 1-(3-amino-2,2-dimethylpropyl)-5-(5-(pyridin-3-yl)-1H-pyrazolo[3,4-c]pyridin-3-yl)pyridin-2(1H)-one] came in with a Ki of 1.29 nM.
As for `N[C@H]1CCCN(c2cccc(-c3n[nH]c4cnc(-n5ccnc5)cc34)n2)C1` [Example 380, (S)-1-(6-(5-(1H-imidazol-1-yl)-1H-pyrazolo[3,4-c]pyridin-3-yl)pyridin-2-yl)piperidin-3-amine], the Ki stood at 0.523 nM.
Under `Cc1cncc(-c2cc3c(-c4cccc(N5CCNCC5)n4)n[nH]c3cn2)c1` [Example 384, 5-(5-methylpyridin-3-yl)-3-(6-(piperazin-1-yl)pyridin-2-yl)-1H-pyrazolo[3,4-c]pyridine] stands 0.041 nM; under `CCn1cc(-c2cc3c(-c4cccc(N5C[C@@H](N)C[C@@H](F)C5)n4)n[nH]c3cn2)cn1` [Example 385, (3S,5R)-1-(6-(5-(1-ethyl-1H-pyrazol-4-yl)-1H-pyrazolo[3,4-c]pyridin-3-yl)pyridin-2-yl)-5-fluoropiperidin-3-amine], 0.131 nM; under `Cn1cc(-c2cc3c(-c4ccc(Br)c(N5CC(N6CCS(=O)(=O)CC6)C5)n4)n[nH]c3cn2)cn1` [Example 387, 4-(1-(3-bromo-6-(5-(1-methyl-1H-pyrazol-4-yl)-1H-pyrazolo[3,4-c]pyridin-3-yl)pyridin-2-yl)azetidin-3-yl)-1,1-dioxothiomorpholine], 1.59 nM.
